In article PMC10013565 (Journal of Enzyme Inhibition and Medicinal Chemistry, 2023) one finds Ki data, which are given here for 15 compounds.

One assay addresses hCA II (Homo sapiens, UniProt P00918). Kind of assay: stopped-flow CO2 hydrase assay, hCA II. It counts as biochemical.
Another assay deals with hCA XII (Homo sapiens, UniProt O43570). Kind of assay: stopped-flow CO2 hydrase assay, hCA XII. It counts as biochemical.
The next assay concerns the target hCA IX (Homo sapiens, UniProt Q16790). Kind of assay: biochemical.
Another assay addresses hCA I (Homo sapiens, UniProt P00915). Kind of assay: stopped-flow CO2 hydrase assay, hCA I. It is filed as biochemical.

Some results are limits rather than exact numbers.

Sequence of hCA I (P00915 whole entry): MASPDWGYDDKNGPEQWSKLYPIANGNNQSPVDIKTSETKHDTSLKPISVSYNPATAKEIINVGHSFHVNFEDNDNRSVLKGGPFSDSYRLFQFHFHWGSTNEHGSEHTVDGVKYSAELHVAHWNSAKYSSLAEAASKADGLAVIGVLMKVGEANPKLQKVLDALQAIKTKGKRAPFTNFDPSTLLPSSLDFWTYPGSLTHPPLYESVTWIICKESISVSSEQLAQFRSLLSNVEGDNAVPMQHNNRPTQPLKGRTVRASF
Sequence of hCA XII (O43570 25-354): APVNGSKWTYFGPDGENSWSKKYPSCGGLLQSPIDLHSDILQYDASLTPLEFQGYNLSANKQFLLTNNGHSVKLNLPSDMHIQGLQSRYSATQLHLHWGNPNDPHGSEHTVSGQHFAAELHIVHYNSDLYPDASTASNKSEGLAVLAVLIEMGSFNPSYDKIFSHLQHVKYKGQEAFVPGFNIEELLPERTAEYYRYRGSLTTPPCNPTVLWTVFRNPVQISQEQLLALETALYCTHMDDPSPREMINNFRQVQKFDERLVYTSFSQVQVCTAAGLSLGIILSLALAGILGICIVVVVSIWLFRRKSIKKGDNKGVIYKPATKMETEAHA

For the compound `C/C(=N\OCc1ccc(Cl)cc1)c1cc2ccccc2oc1=O` [20b, (E)-3–(1-(((4-chlorobenzyl)oxy)imino)ethyl)-2H-chromen-2-one], the Ki (as a rule, the dissociation constant of the complex between target and ligand, obtained from inhibition or displacement) at hCA II is more than 100 µM; at hCA XII, 9.4 µM; on hCA IX, 8.9 µM; on hCA I, more than 100 µM.
On to `O=C(c1cc2ccc(O)cc2oc1=O)N1CCN(S(=O)(=O)c2ccc(F)cc2)CC1` [12a, 3–(4-((4-Fluorophenyl)sulphonyl)piperazine-1-carbonyl)-7-hydroxy-2H-chromen-2-one], for which the Ki was more than 100 µM at hCA II, 86.6 µM at hCA XII, more than 100 µM on hCA IX and more than 100 µM on hCA I.
With `O=C(c1cc2ccc(O)cc2oc1=O)N1CCN(S(=O)(=O)c2ccc(Br)s2)CC1` [12c, 3–(4-((5-Bromothiophen-2-yl)sulphonyl)piperazine-1-carbonyl)-7-hydroxy-2H-chromen-2-one], the Ki on hCA II is more than 100 µM; on hCA XII, more than 100 µM; at hCA IX, 50.7 µM; on hCA I it was more than 100 µM.
Take `O=C(c1c(O)c2ccccc2oc1=O)N1CCN(S(=O)(=O)c2ccc(Br)s2)CC1` [16c, 3–(4-((5-Bromothiophen-2-yl)sulphonyl)piperazine-1-carbonyl)-4-hydroxy-2H-chromene-2-one]: the Ki was more than 100 µM at hCA II, 36.5 µM on hCA XII, more than 100 µM on hCA IX and more than 100 µM at hCA I.
In the case of `CCS(=O)(=O)N1CCN(C(=O)c2cc3ccccc3oc2=O)CC1` [6e, 3–(4-(Ethylsulfonyl)piperazine-1-carbonyl)-2H-chromen-2-one], the Ki is more than 100 µM at hCA II, 26.1 µM at hCA XII, 37.8 µM at hCA IX and more than 100 µM at hCA I.
For `O=C(c1c(O)c2ccccc2oc1=O)N1CCN(S(=O)(=O)c2ccccc2)CC1` [16b, 4-Hydroxy-3–(4-(phenylsulfonyl)piperazine-1-carbonyl)-2H-chromen-2-one], the Ki on hCA II was more than 100 µM; on hCA XII it was 9.5 µM; at hCA IX, 90.9 µM; at hCA I, more than 100 µM.
As to `O=C(c1cc2ccccc2oc1=O)N1CCN(C(=S)Nc2ccc(Cl)cc2)CC1` [7b, N-(4-chlorophenyl)-4–(2-oxo-2H-chromene-3-carbonyl)piperazine-1-carbothioamide], the Ki on hCA II is more than 100 µM; at hCA XII, 8 µM; on hCA IX, 9.2 µM; at hCA I, more than 100 µM.
Consider `O=C(c1c(O)c2ccccc2oc1=O)N1CCN(S(=O)(=O)c2ccc(F)cc2)CC1` [16a, 3–(4-((4-Fluorophenyl)sulphonyl)piperazine-1-carbonyl)-4-hydroxy-2H-chromen-2-one], for which the Ki at hCA II is more than 100 µM; at hCA XII, 92.2 µM; on hCA IX, more than 100 µM; on hCA I it was more than 100 µM.
With `O=C(c1cc2ccc(O)cc2oc1=O)N1CCN(S(=O)(=O)c2ccccc2)CC1` [12b, 7-Hydroxy-3–(4-(phenylsulfonyl)piperazine-1-carbonyl)-2H-chromen-2-one], the Ki was more than 100 µM on hCA II, 9.3 µM at hCA XII, more than 100 µM on hCA IX and more than 100 µM at hCA I.
Turning to `O=C(c1cc2ccccc2oc1=O)N1CCN(C(=S)Nc2ccccc2Cl)CC1` [7a, N-(2-chlorophenyl)-4–(2-oxo-2H-chromene-3-carbonyl)piperazine-1-carbothioamide], the Ki at hCA II was more than 100 µM; at hCA XII, 47.8 µM; at hCA IX, 72 µM; at hCA I, more than 100 µM.
Take `O=C(c1cc2ccccc2oc1=O)N1CCN(C(=S)Nc2ccccc2)CC1` [7c, 4–(2-Oxo-2H-chromene-3-carbonyl)-N-phenylpiperazine-1-carbothioamide]: the Ki on hCA II was more than 100 µM; at hCA XII, 31.8 µM; on hCA I it was more than 100 µM.
Consider `O=C(c1cc2ccccc2oc1=O)N1CCN(S(=O)(=O)c2ccc([N+](=O)[O-])cc2)CC1` [6a, 3–(4-((4-Nitrophenyl)sulphonyl)piperazine-1-carbonyl)-2H-chromen-2-one], for which the Ki was more than 100 µM at hCA II, 9.1 µM on hCA XII, 7.1 µM on hCA IX and more than 100 µM on hCA I.
`O=C(c1cc2ccccc2oc1=O)N1CCN(S(=O)(=O)c2ccc(Br)s2)CC1` [6d, 3–(4-((5-Bromothiophen-2-yl)sulphonyl)piperazine-1-carbonyl)-2H-chromen-2-one]: the Ki on hCA II was more than 100 µM; at hCA XII, 9.8 µM; at hCA IX, 5.56 µM; at hCA I, more than 100 µM.
Consider `C/C(=N\OCc1ccc(F)cc1)c1cc2ccccc2oc1=O` [20a, (E)-3–(1-(((4-fluorobenzyl)oxy)imino)ethyl)-2H-chromen-2-one], for which the values for the Ki at hCA II, at hCA IX and on hCA I were more than 100 µM, 62.1 µM and more than 100 µM, respectively.
Consider `O=C(c1cc2ccccc2oc1=O)N1CCN(S(=O)(=O)c2cccs2)CC1` [6c, 3–(4-(Thiophen-2-ylsulfonyl)piperazine-1-carbonyl)-2H-chromen-2-one], for which the values for the Ki at hCA II, at hCA XII and at hCA I were more than 100 µM, 66.7 µM and more than 100 µM, respectively.
